From US12263172B2, “Toll-like receptor agonists for use in the treatment of hepatitis b” (priority 2019, dated 2025)

Test system: CYP1A2, 2B6, and 3A4
Experiment: in vitro CYP induction
Type: in vitro ADME
Settings: up to 10 μM

CCCCOc1nc(N)c2[nH]cc(Cc3ccc(CN4CCCC4)cc3)c2n1 [Compound 4]
in vitro induction of CYP1A2, 2B6, and 3A4: not an in vitro inducer
